# Test results: ChEMBL document CHEMBL5678818, “Discovery of potent SOS1 inhibitors that block RAS activation via disruption of the RAS-SOS1 interaction” (Proc Natl Acad Sci U S A, 2019)
# Columns and labels:
# [1] = molecular target: Beta-adrenergic receptor kinase 1 (Homo sapiens) (UniProt P25098); test: Inhibition of GRK2 (unknown origin) assessed as residual activity at 1000 nM by KINOMEscan analysis relative to control
# [2] = molecular target: T1, Ephrin type-B receptor 4 (Homo sapiens) (UniProt P54760); test: Inhibition of EPHB4 (unknown origin) assessed as residual activity at 100 nM by KINOMEscan analysis relative to control
# T1 sequence (whole entry): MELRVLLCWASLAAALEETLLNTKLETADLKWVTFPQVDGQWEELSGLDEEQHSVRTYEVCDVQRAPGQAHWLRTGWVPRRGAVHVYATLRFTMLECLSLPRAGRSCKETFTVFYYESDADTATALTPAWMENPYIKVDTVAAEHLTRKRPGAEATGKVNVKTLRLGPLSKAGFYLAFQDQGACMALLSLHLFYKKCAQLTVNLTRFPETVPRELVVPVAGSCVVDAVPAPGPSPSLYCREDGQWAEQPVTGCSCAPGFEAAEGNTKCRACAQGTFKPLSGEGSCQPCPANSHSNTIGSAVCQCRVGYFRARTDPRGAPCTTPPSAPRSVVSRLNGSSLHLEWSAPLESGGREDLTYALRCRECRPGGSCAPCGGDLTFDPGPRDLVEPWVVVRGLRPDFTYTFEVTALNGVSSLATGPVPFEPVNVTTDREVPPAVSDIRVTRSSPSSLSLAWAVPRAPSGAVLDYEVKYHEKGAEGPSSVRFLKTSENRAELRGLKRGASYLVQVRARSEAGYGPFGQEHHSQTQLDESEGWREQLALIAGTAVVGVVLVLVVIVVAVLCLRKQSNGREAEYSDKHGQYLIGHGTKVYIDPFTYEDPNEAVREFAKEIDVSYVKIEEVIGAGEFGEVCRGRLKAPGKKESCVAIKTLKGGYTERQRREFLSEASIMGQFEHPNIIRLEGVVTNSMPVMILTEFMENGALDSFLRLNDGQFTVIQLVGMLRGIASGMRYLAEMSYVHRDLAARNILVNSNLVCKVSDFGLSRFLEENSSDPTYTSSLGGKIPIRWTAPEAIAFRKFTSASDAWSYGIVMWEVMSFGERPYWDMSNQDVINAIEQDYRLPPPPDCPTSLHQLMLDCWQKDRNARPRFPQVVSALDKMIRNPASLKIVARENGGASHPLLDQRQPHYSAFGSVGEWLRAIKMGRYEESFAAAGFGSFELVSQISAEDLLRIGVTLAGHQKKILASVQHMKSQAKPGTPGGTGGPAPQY
# [3] = molecular target: Insulin receptor (Homo sapiens) (UniProt P06213); test: Inhibition of INSR (unknown origin) assessed as residual activity at 100 nM by KINOMEscan analysis relative to control
# [4] = molecular target: Serine/threonine-protein kinase PLK2 (Homo sapiens) (UniProt Q9NYY3); test: Inhibition of PLK2 (unknown origin) assessed as residual activity at 100 nM by KINOMEscan analysis relative to control
# [5] = molecular target: T2, Serine/threonine-protein kinase DCLK1 (Homo sapiens) (UniProt O15075); test: Inhibition of DCAMKL1 (unknown origin) assessed as residual activity at 100 nM by KINOMEscan analysis relative to control
# T2 sequence (whole entry): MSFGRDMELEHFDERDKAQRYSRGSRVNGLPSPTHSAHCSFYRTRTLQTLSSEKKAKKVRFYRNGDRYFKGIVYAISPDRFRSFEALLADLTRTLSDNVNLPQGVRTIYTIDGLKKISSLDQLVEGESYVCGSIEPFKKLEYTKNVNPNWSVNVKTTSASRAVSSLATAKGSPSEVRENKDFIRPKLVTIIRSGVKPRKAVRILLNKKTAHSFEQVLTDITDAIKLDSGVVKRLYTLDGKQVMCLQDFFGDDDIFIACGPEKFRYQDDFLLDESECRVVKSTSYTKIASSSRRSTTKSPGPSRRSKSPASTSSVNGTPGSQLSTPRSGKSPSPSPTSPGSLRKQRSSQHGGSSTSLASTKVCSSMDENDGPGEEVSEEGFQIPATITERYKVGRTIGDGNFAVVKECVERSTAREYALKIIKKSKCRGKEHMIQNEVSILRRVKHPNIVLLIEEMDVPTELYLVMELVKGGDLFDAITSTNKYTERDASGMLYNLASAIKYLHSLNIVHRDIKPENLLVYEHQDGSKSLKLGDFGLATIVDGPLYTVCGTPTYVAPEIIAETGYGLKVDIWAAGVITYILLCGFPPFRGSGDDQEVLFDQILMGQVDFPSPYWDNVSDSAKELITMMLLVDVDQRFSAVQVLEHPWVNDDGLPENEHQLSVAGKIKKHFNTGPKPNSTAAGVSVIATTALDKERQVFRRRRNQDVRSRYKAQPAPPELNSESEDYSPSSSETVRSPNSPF
# [6] = test system: Tyrosine-protein kinase ABL1 (Homo sapiens), P00519 [T315I]; test: Inhibition of phosphorylated ABL1 T315I mutant (unknown origin) assessed as residual activity at 100 nM by KINOMEscan analysis relative to control
# [7] = molecular target: Tyrosine-protein kinase Lck (Homo sapiens) (UniProt P06239); test: Inhibition of LCK (unknown origin) assessed as residual activity at 100 nM by KINOMEscan analysis relative to control
# [8] = molecular target: Tyrosine-protein kinase Fer (Homo sapiens) (UniProt P16591); test: Inhibition of FER (unknown origin) assessed as residual activity at 100 nM by KINOMEscan analysis relative to control
# [9] = molecular target: AP2-associated protein kinase 1 (Homo sapiens) (UniProt Q2M2I8); test: Inhibition of AAK1 (unknown origin) assessed as residual activity at 100 nM by KINOMEscan analysis relative to control
# [10] = test system: Tyrosine-protein kinase ABL1 (Homo sapiens), P00519 [H396P]; test: Inhibition of phosphorylated ABL1 H396P mutant (unknown origin) assessed as residual activity at 100 nM by KINOMEscan analysis relative to control
# Sequence of Tyrosine-protein kinase Fer (Homo sapiens) (P16591 whole entry, looked up): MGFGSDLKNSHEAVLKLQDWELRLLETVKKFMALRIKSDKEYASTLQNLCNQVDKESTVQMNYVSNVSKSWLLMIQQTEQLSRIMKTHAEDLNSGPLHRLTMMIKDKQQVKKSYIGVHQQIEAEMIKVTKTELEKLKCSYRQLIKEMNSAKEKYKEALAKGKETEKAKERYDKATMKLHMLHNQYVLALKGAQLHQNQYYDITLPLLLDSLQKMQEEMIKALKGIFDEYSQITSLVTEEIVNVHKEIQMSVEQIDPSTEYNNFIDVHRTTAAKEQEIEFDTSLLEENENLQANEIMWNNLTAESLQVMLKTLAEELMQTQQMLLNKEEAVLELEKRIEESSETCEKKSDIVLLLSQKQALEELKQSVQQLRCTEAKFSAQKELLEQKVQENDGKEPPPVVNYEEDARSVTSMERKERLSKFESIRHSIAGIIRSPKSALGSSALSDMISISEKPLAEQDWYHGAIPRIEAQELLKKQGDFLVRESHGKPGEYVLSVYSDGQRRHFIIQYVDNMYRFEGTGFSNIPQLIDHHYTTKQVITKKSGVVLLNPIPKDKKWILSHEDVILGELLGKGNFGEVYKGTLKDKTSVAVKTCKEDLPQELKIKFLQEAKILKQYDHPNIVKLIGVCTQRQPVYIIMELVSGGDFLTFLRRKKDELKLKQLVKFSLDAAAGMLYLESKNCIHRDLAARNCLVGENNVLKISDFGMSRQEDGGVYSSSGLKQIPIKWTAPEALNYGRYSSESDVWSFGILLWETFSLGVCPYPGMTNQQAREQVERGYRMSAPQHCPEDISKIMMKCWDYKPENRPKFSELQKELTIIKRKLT
# Sequence of AP2-associated protein kinase 1 (Homo sapiens) (Q2M2I8 whole entry, looked up): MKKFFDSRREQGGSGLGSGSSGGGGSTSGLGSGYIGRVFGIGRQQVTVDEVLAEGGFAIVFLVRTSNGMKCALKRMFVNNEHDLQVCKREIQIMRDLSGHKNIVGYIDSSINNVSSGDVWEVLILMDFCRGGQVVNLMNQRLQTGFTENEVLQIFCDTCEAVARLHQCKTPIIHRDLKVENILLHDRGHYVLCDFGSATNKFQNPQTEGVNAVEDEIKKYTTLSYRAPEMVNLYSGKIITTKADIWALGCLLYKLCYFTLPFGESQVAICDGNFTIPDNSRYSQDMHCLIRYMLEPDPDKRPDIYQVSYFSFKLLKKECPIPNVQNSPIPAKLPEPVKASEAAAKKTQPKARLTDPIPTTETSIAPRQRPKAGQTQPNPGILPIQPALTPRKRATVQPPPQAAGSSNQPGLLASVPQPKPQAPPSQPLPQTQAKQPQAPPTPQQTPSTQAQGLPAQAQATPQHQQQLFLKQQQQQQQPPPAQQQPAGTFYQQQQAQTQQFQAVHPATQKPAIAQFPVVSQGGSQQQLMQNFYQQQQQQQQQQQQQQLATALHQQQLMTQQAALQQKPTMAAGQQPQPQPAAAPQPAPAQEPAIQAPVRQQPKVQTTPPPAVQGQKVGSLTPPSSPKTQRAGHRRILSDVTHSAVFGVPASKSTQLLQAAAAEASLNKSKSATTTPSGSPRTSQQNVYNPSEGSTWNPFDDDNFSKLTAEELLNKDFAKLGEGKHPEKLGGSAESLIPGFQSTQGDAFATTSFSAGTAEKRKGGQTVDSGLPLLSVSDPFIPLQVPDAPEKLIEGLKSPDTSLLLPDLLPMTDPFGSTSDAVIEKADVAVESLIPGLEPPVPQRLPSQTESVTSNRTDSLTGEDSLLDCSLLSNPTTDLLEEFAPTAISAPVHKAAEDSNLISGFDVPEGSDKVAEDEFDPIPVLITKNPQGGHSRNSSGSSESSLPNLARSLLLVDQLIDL
# Sequence of Serine/threonine-protein kinase PLK2 (Homo sapiens) (Q9NYY3 whole entry, looked up): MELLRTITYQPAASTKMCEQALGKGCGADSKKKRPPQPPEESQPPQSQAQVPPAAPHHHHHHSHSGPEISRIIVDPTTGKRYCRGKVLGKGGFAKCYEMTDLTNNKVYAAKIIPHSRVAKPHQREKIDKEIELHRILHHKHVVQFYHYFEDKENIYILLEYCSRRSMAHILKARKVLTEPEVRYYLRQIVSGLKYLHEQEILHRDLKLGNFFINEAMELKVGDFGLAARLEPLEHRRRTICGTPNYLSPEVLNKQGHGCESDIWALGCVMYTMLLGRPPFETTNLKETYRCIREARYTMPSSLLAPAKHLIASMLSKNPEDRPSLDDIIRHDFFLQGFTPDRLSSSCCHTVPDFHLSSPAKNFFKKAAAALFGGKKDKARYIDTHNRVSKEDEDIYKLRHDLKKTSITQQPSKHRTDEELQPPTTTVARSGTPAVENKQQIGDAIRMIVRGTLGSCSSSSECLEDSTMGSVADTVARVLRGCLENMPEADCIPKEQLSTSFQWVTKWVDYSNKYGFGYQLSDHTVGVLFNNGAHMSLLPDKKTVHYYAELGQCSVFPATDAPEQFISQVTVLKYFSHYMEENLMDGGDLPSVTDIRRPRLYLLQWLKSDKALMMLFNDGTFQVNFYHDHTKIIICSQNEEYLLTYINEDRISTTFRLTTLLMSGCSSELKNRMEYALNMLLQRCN
# Sequence of Tyrosine-protein kinase Lck (Homo sapiens) (P06239 2-509 limits assumed): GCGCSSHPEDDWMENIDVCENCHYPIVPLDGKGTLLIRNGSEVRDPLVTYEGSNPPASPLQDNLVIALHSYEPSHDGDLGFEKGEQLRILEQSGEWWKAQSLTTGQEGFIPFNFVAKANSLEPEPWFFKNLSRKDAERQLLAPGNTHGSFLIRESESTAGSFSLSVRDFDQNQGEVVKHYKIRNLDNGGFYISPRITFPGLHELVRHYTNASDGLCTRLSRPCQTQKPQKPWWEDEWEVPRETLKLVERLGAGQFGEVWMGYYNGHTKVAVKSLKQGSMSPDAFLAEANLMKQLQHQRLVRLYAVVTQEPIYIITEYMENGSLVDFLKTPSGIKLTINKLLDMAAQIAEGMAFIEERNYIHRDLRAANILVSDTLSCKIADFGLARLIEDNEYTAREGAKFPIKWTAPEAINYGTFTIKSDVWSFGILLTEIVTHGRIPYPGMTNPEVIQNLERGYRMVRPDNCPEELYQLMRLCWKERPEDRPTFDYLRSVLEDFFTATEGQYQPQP
# Sequence of Beta-adrenergic receptor kinase 1 (Homo sapiens) (P25098 whole entry): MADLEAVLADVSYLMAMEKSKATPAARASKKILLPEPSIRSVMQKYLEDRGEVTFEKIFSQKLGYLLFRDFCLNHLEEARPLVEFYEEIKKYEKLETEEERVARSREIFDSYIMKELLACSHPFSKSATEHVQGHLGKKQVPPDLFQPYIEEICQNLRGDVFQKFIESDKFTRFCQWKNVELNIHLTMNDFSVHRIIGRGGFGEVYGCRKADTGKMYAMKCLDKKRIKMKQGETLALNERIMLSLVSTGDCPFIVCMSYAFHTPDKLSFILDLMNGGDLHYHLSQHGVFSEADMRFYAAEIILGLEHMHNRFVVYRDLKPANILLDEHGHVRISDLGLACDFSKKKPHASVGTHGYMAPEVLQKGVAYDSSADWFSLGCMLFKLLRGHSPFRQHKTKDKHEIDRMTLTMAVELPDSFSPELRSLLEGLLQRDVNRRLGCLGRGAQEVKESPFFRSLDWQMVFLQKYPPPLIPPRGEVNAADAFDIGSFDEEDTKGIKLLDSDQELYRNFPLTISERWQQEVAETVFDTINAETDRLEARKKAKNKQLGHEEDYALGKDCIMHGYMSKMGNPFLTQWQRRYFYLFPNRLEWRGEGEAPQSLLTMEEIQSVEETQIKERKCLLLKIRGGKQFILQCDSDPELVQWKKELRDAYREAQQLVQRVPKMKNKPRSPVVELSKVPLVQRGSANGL
# Sequence of Insulin receptor (Homo sapiens) (P06213 28-758 limits assumed): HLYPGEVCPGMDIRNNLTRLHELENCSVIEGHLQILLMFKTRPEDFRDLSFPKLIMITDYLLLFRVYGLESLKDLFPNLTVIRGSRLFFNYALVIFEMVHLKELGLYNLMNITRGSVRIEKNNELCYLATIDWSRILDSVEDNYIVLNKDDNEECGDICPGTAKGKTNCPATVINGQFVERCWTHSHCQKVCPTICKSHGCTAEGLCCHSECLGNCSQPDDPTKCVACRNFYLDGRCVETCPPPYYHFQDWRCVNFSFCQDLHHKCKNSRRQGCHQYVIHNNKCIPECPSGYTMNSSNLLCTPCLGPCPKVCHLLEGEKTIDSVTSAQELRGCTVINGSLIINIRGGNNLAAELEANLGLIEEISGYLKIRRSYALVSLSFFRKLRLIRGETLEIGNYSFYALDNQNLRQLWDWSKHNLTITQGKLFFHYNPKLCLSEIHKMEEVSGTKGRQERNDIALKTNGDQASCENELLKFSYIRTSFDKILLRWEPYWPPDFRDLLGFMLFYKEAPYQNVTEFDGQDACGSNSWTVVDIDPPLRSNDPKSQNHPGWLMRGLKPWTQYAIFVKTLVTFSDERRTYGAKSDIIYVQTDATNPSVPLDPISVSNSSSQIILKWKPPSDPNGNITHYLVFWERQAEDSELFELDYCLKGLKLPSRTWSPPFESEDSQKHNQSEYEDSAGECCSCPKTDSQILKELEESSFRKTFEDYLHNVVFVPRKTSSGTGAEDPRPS
# Sequence of Insulin receptor (Homo sapiens) (P06213 763-1382 limits assumed): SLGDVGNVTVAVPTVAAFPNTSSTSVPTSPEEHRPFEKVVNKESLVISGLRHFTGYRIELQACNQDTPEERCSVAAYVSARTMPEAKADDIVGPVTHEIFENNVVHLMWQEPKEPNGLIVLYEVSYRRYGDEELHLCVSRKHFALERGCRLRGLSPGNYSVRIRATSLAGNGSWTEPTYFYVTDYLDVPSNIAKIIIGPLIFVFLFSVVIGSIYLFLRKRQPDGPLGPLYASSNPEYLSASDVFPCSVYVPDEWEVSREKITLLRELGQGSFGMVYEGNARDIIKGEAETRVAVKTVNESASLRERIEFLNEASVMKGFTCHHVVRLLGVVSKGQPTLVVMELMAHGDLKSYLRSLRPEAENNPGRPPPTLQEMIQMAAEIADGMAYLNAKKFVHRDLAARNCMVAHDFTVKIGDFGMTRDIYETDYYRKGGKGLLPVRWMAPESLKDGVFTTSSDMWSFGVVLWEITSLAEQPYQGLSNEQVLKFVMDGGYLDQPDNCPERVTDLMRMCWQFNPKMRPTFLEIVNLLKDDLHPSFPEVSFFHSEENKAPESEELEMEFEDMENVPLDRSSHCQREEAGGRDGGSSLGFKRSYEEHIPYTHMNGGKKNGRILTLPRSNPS
SMILES,Activity [1] [%],Activity [2] [%],Activity [3] [%],Activity [4] [%],Activity [5] [%],Activity [6] [%],Activity [7] [%],Activity [8] [%],Activity [9] [%],Activity [10] [%]
COc1cc2nc(C)nc(N[C@H](C)c3cccc(-c4cn[nH]c4)c3)c2cc1OC,62,,,,,,,,,
COc1cc2ncnc(N[C@H](C)c3cccc4ccccc34)c2cc1OC,,75,88,92,86,89,100,100,74,92
